Entries after “also recorded” stand apart in the source; their conditions may differ. Counter-ions that a name gives are not always drawn.
Legend:
Type in all cases: cell-based
human alpha4beta2 nAChRs [1] = biological target: T1, human alpha4beta2 nAChRs (Homo sapiens, UniProt P17787+P43681); assay: Positive allosteric modulation of agonist-evoked currents, two-electrode voltage clamp in Xenopus oocytes (Example 1)
T1 construct: expressed in transfected cells; host or cells: Xenopus laevis oocytes (cDNA injection)
T1 sequence (P43681 29-627 limits assumed): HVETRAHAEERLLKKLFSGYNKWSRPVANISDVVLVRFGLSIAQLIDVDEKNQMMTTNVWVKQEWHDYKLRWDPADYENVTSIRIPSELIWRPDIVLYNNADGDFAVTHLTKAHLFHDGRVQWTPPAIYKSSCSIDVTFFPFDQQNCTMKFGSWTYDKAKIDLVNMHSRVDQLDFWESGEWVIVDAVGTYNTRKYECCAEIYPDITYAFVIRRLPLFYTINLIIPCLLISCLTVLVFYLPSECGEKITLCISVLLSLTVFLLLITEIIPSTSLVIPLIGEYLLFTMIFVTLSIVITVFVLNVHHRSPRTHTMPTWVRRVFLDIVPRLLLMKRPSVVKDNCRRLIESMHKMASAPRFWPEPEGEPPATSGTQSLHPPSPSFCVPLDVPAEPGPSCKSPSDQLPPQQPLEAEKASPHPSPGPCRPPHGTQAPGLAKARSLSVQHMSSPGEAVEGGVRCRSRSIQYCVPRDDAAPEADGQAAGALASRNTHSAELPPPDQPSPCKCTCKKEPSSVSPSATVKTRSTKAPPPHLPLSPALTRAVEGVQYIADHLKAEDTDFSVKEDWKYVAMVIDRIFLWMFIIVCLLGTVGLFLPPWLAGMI
T1 sequence (P17787 26-502): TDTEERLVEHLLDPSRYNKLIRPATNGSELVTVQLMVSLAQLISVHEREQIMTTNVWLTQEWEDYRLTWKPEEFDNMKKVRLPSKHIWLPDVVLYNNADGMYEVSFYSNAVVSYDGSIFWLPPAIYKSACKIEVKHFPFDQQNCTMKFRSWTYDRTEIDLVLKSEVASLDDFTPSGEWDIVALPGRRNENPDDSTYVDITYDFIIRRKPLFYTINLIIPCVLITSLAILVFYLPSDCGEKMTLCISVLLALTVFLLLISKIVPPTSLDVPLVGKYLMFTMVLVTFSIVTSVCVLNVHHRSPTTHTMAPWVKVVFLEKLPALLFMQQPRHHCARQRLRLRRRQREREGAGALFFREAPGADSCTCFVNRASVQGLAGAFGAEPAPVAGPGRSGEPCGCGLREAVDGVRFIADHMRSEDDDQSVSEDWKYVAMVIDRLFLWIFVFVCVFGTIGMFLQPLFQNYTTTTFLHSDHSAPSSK
Description: • Acetylcholine chloride • 100 mM stock solution in bi-distilled water 1.3 Test system • Apparatus: Automated Injection and Recording Apparatus, HiQScreen • Species of donor animals: Xenopus • Strain of animals: Laevis • Origin (supplier) of animals: HiQScreen Sàrl, Geneva • Body Weight of animals: 150 g to 300 g • Animal maintenance 3 to 5 per vivarium • Room temperature: 20-22° C. • Lighting times: Vivarium were exposed to daylight with additional artificial lighting (6 am-8 pm in summer; 8 am-7 pm in winter). • Food: Food pellets, ad libitum • Source of biological material • and isolation procedure: Abdominal incision to remove ovaries • Experimental conditions in Oocyte incubation: Barth solution containing in mM NaCl 88, • vitro: […] OR2 medium containing in mM: […] Two-electrode voltage clamp, using proprietary automated system equipped with a Geneclamp amplifier (Axon Instrument, Foster City, Calif., USA), or HiClamp (Multichannel Systems, Germany) Abbreviations: Ach, Acetylcholine; nAChR, Nicotinic acetylcholine receptor; SEM, Standard error of the mean; PAM, Positive allosteric modulator All experiments were carried out at human nAChRs expressed in Xenopus oocytes using the method of cDNA expression. Xenopus oocytes were prepared and injected using standard procedures. Briefly, ovaries were harvested from Xenopus Laevis females that have been deeply anesthetized by cooling at 4° C. and Tricaine methanesulfonate (MS-222 at a concentration of 150 mg/L) in sodium bicarbonate (300 mg/L). Once anesthetized the animal was decapitated and pithed following the rules of animal rights from the Geneva canton. […] All recordings were performed at 18° C. and cells superfused with OR2 medium containing in mM: […] Currents evoked by ACh or other agonists were recorded using an automated process equipped with standard two-electrode voltage-clamp configuration (TEVC). Data were captured and analyzed using a HiQScreen proprietary data acquisition and analysis software running under Matlab (Mathworks Inc.). […] Compounds were dissolved in OR2 as stock solution (1 mM) and the final dilution to the desired concentration was made on the day of the experiment. Injections of cDNAs encoding for the human alpha4beta2, were performed in at least 95 oocytes were performed using a proprietary automated injection device (Hogg et al., J. Neurosci. Methods, 2008) and receptor expression examined at least two days later. Oocytes were poked with two electrodes and their membrane potential maintained, unless indicated, at −80 mV throughout the experiment. A protocol to determine the allosteric modulation at the alpha4beta2 nAChRs in the oocytes expressing the receptor was developed. Oocytes expressing alpha4beta2 nAChRs were exposed to increasing concentrations of ACh while the response was evaluated. This was repeated with the addition of a fixed concentration of the allosteric modulator. The current evoked from the exposure to the agonist with the modulator was recorded and compared to currents evoked in the absence of the modulator. To assess the effects of positive allosteric modulators (Br-PBTC and NS-9283) a protocol of determination of the concentration activation curve in absence and presence of the PAM was designed. […] To assess the positive allosteric modulator effects of NS-9283 at the compound 1 hemi-galactarate dihydrate the same experimental protocol was conducted using 1 μM of the modulator. […] To further evaluate the PAM effects, the modulation was measured either as a first application and compared versus the subsequent agonist evoked response or, vice versa, by first exposing the cell to the agonist alone and then to the PAM and the agonist applied during a sustained PAM exposure. […] The same experiment was then conducted for compound 1 hemi-galactarate dihydrate as the agonist and Br-PBTC as the modulator or NS-9283 as the modulator.

human alpha4beta2 nAChRs [2] = biological target: T1, human alpha4beta2 nAChRs; assay: Desensitization by sustained (1 hour) agonist exposure and recovery, without and with PAM, Xenopus oocytes (Example 1)
[3] = biological target: T2, human nAChR alpha3alpha5beta4 (Homo sapiens, UniProt P30532+P30926+P32297); assay: Agonist activity, two-electrode voltage clamp in Xenopus oocytes (Examples 2 and 5); details: for agonist character: versus ACh response, mono-citrate
T2 construct: expressed in transfected cells; host or cells: Xenopus laevis oocytes (cDNA injection)
T2 sequence (P32297 32-505): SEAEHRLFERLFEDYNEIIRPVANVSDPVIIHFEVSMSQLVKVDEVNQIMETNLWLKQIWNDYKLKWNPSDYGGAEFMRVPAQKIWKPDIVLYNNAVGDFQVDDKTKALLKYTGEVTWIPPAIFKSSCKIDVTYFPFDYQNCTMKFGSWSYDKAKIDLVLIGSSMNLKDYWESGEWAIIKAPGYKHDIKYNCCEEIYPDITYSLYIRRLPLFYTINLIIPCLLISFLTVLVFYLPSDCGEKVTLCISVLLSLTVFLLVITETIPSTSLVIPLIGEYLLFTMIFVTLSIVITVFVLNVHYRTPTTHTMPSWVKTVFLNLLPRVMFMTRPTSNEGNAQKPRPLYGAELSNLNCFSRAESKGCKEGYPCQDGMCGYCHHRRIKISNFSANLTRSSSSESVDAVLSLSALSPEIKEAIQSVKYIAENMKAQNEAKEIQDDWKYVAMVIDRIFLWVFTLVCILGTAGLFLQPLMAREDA
T2 sequence (P30532 23-468): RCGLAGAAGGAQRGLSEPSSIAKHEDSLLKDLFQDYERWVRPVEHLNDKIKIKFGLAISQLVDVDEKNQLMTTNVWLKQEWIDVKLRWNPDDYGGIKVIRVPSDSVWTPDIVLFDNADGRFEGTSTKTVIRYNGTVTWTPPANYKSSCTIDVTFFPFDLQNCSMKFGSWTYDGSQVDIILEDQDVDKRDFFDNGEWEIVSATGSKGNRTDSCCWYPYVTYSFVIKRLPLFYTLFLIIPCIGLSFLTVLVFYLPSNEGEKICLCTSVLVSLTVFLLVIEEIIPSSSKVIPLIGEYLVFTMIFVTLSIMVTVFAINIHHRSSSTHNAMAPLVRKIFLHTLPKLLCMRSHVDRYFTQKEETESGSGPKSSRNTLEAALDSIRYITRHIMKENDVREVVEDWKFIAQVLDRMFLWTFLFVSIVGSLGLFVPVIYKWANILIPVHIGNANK
T2 sequence (P30926 22-498): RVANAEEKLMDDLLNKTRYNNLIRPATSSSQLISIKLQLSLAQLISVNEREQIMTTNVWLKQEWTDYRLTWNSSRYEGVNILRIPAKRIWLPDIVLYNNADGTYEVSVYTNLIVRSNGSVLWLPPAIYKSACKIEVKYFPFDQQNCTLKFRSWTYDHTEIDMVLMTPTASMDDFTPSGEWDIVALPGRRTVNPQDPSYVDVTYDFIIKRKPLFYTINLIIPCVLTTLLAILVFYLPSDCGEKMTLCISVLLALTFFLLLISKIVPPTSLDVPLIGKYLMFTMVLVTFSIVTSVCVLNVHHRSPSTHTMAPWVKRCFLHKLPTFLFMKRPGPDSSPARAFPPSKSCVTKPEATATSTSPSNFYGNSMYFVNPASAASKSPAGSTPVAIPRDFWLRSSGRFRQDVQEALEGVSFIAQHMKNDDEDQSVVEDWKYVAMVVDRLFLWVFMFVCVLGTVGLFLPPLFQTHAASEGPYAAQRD
Description: (§1) All experiments were carried out at human nAChRs expressed in Xenopus oocytes using the method of cDNA expression. Xenopus oocytes were prepared and injected using standard procedures.
(§2) Briefly, ovaries were harvested from Xenopus Laevis females that have been deeply anesthetized by cooling at 4° C. and Tricaine methanesulfonate (MS-222 at a concentration of 150 mg/L) in sodium bicarbonate (300 mg/L). Once anesthetized the animal was decapitated and pithed following the rules of animal rights from the Geneva canton. A small piece of ovary was isolated for immediate preparation while the remaining part was placed at 4° C. in a sterile Barth solution containing in mM NaCl 88, KCl 1, NaHCO32.4, HEPES 10, MgSO4.7H2O 0.82, Ca(NO3)2.4H2O 0.33, CaCl2.6H2O 0.41, at pH 7.4, and supplemented with 20 μg/ml of kanamycin, 100 unit/ml penicillin. All recordings were performed at 18° C. and cells superfused with OR2 medium containing in mM: NaCl 88, KCl 2.5, HEPES 5, CaCl2.2H2O 1.8, MgCl2.6H2O 1, pH 7.4.
(§3) Currents evoked by ACh or other agonists were recorded using an automated process equipped with standard two-electrode voltage-clamp configuration (TEVC). Data were captured and analyzed using a HiQScreen proprietary data acquisition and analysis software running under Matlab (Mathworks Inc.).
(§4) See Example 1. […] The test concentration of acetylcholine chloride was 1280 micromolar.
(§5) Injections of cDNAs encoding for the human alpha3beta4, alpha3alpha5beta4, alpha4beta2, and alpha7 were performed in at least 95 oocytes were performed using a proprietary automated injection and receptor expression examined at least two days later. Oocytes were poked with two electrodes and their membrane potential maintained, unless indicated, at −80 mV throughout the experiment.
(§6) A protocol to determine agonistic activity in the oocytes expressing the nAChRs was developed. The cells were exposed to a series of increasing concentrations of a compound agonist for 10 seconds each at two minute intervals. The current evoked from exposure to the agonist at each concentration was recorded. For oocytes expressing alpha7 nAChRs, exposure to the agonist was reduced to 5 seconds. This process was repeated for each agonist tested against each type of nAChR expressing cell.
(§7) To evaluate the agonistic properties of compound 1 hemi-galactarate dihydrate a protocol of brief exposures to a series of growing concentrations of compound 1 hemi-galactarate dihydrate was used.
(§8) Agonist Preparation: See Example 1. […] The test concentration of acetylcholine chloride was 1280 micromolar.
as §5, with “Experimental Procedures: Injections” for “Injections”, “alpha4beta2, alpha4alpha6beta2,” for “alpha4beta2,”, “oocytes” for “oocytes were performed”, “injection device. Cellular” for “injection and”, “expression was” for “expression”
as §6, with “developed. Oocytes expressing a nAChR subtype were exposed to a brief test pulse of acetylcholine (1280 micromolar) while the holding current and response was evaluated. Cells displaying robust currents were washed for 90 seconds.” for “developed.”, “were then” for “were”, “nAChR” for “compound”, “intervals. The nAChR agonist test concentrations were 0.1, 0.3, 1, 3, 10, 30, 100, 300 (micromolar).” for “intervals.”

human nAChR alpha7 = biological target: T3, human nAChR alpha7 (Homo sapiens, UniProt P36544); assay: as above; details: for percent of the maximal ACh-evoked current: at 300 μM (300 micromolar) agonist; for percent of the maximal ACh-evoked current / agonist character: mono-citrate; for agonist character: versus ACh response
T3 construct: expressed in transfected cells; host or cells: Xenopus laevis oocytes (cDNA injection)
T3 sequence (P36544 23-502): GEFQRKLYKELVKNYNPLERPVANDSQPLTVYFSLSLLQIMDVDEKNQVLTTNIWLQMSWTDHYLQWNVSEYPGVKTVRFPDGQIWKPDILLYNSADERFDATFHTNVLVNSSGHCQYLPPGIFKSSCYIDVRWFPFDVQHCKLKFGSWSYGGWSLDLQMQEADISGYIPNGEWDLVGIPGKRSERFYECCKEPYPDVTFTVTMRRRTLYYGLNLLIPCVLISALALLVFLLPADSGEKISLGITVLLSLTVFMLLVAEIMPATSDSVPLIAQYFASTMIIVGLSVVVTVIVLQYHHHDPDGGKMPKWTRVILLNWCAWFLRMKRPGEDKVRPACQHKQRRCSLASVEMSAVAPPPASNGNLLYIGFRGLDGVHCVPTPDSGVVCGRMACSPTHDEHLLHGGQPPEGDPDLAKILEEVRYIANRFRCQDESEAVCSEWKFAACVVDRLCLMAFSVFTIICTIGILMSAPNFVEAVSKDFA
Description: as §1, §2, §3, §4, §5, §6, §7, §8
as §5, with “Experimental Procedures: Injections” for “Injections”, “alpha4beta2, alpha4alpha6beta2,” for “alpha4beta2,”, “oocytes” for “oocytes were performed”, “injection device. Cellular” for “injection and”, “expression was” for “expression”
as §6, with “developed. Oocytes expressing a nAChR subtype were exposed to a brief test pulse of acetylcholine (1280 micromolar) while the holding current and response was evaluated. Cells displaying robust currents were washed for 90 seconds.” for “developed.”, “were then” for “were”, “nAChR” for “compound”, “intervals. The nAChR agonist test concentrations were 0.1, 0.3, 1, 3, 10, 30, 100, 300 (micromolar).” for “intervals.”

human nAChR alpha3beta4 = biological target: T4, human nAChR alpha3beta4 (Homo sapiens, UniProt P30926+P32297); assay: as above; details: for agonist character: versus ACh response, mono-citrate
T4 construct: expressed in transfected cells; host or cells: Xenopus laevis oocytes (cDNA injection)
T4 sequence (P32297 32-505): as the sequence (P32297 32-505) above
T4 sequence (P30926 22-498): as the sequence (P30926 22-498) above
Description: as §1, §2, §3, §4, §5, §6, §7, §8
as §5, with “Experimental Procedures: Injections” for “Injections”, “alpha4beta2, alpha4alpha6beta2,” for “alpha4beta2,”, “oocytes” for “oocytes were performed”, “injection device. Cellular” for “injection and”, “expression was” for “expression”
as §6, with “developed. Oocytes expressing a nAChR subtype were exposed to a brief test pulse of acetylcholine (1280 micromolar) while the holding current and response was evaluated. Cells displaying robust currents were washed for 90 seconds.” for “developed.”, “were then” for “were”, “nAChR” for “compound”, “intervals. The nAChR agonist test concentrations were 0.1, 0.3, 1, 3, 10, 30, 100, 300 (micromolar).” for “intervals.”

human nAChR alpha4beta2 = biological target: T5, human nAChR alpha4beta2 (Homo sapiens, UniProt P17787+P43681); assay: as above; details: for agonist character: versus ACh response
T5 construct: expressed in transfected cells; host or cells: Xenopus laevis oocytes (cDNA injection)
T5 sequence (P43681 29-627 limits assumed): as the sequence (P43681 29-627 limits assumed) above
T5 sequence (P17787 26-502): as the sequence (P17787 26-502) above
Description: as §1, §2, §3, §4, §5, §6, §7, §8
as §5, with “Experimental Procedures: Injections” for “Injections”, “alpha4beta2, alpha4alpha6beta2,” for “alpha4beta2,”, “oocytes” for “oocytes were performed”, “injection device. Cellular” for “injection and”, “expression was” for “expression”
as §6, with “developed. Oocytes expressing a nAChR subtype were exposed to a brief test pulse of acetylcholine (1280 micromolar) while the holding current and response was evaluated. Cells displaying robust currents were washed for 90 seconds.” for “developed.”, “were then” for “were”, “nAChR” for “compound”, “intervals. The nAChR agonist test concentrations were 0.1, 0.3, 1, 3, 10, 30, 100, 300 (micromolar).” for “intervals.”

[4] = biological target: T6, human nAChR alpha4alpha6beta2 (Homo sapiens, UniProt P17787+P43681+Q15825); assay: Agonist activity, two-electrode voltage clamp in Xenopus oocytes (Example 5); details: for agonist character: versus ACh response, mono-citrate
T6 construct: expressed in transfected cells; host or cells: Xenopus laevis oocytes (cDNA injection)
T6 sequence (P43681 29-627 limits assumed): as the sequence (P43681 29-627 limits assumed) above
T6 sequence (Q15825 26-494): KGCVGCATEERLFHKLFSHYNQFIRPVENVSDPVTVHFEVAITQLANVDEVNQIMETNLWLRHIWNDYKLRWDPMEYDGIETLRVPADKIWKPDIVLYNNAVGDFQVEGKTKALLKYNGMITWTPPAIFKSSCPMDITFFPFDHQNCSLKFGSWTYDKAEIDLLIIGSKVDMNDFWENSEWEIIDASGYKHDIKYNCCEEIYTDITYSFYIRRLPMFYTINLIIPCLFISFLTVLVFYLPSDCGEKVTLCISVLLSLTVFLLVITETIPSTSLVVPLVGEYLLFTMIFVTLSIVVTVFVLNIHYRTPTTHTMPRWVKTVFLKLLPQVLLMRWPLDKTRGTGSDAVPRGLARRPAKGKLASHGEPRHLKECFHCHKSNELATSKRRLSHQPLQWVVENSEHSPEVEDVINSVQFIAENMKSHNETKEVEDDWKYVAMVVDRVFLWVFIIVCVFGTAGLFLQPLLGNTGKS
T6 sequence (P17787 26-502): as the sequence (P17787 26-502) above
Description: as §1, §2, §3, §8
as §5, with “Experimental Procedures: Injections” for “Injections”, “alpha4beta2, alpha4alpha6beta2,” for “alpha4beta2,”, “oocytes” for “oocytes were performed”, “injection device. Cellular” for “injection and”, “expression was” for “expression”
as §6, with “developed. Oocytes expressing a nAChR subtype were exposed to a brief test pulse of acetylcholine (1280 micromolar) while the holding current and response was evaluated. Cells displaying robust currents were washed for 90 seconds.” for “developed.”, “were then” for “were”, “nAChR” for “compound”, “intervals. The nAChR agonist test concentrations were 0.1, 0.3, 1, 3, 10, 30, 100, 300 (micromolar).” for “intervals.”

[5] = presence vs absence of 1 μM PAM

N#Cc1cccc(-c2nc(-c3cccnc3)no2)c1 [NS-9283, 3-[3-(3-Pyridinyl)-1,2,4-oxadiazol-5-yl]benzonitrile]
positive allosteric modulator activity in the presence of compound 1 hemi-galactarate dihydrate (human alpha4beta2 nAChRs [1]; 1 μM PAM): acts as a positive allosteric modulator; also recorded: potentiate the agonistic activity | dependence of potentiation on the order of agonist and PAM application (human alpha4beta2 nAChRs [1]; agonist compound 1 hemi-galactarate dihydrate): independent on the exposure protocol | maximal current evoked by compound 1 hemi-galactarate dihydrate (human alpha4beta2 nAChRs [1]; [5]): no significant increase | shift of the concentration activation curve to compound 1 hemi-galactarate dihydrate (human alpha4beta2 nAChRs [1]; [5]): significant shift to the left | effect of PAM on recovery from varenicline tartrate desensitization (human alpha4beta2 nAChRs [2]; 300 μM varenicline tartrate 1 hour, 1 μM PAM, wash of 3 hours): failed to significantly modify the recovery time course | effect of PAM on amplitude of the current evoked by varenicline tartrate (human alpha4beta2 nAChRs [2]; 300 μM varenicline tartrate, 1 μM PAM): enhanced the response | effect of PAM on profile of compound 1 hemi-galactarate dihydrate desensitization and recovery (human alpha4beta2 nAChRs [2]; 1 mM agonist, co-application of 1 μM modulator): minimal effect

C(=C\[C@H]1CCNC1)/c1cncnc1 [compound 1 citrate, (R)-5-((E)-2-pyrrolidin-3-ylvinyl)pyrimidine mono-citrate]
EC50 ([3]; Example 5, read-out: EC50): 83 ± 9.05 µM | agonist character ([3]; listed as Compound 1 citrate): almost as a full agonist | agonist character [3]: almost full agonist | fraction of the maximal ACh-evoked current (human nAChR alpha7; 300 micromolar concentration): 25% | EC50 (human nAChR alpha7; Example 5, only an estimation): 126 ± 28.5 µM | percent of the maximal ACh-evoked current (human nAChR alpha7; listed as Compound 1 citrate): 25% | percent of the maximal ACh-evoked current (human nAChR alpha7): 25% | agonist character (human nAChR alpha7; listed as Compound 1 citrate): poor agonist | agonist character (human nAChR alpha7): weak partial agonist | EC50 (human nAChR alpha3beta4; read-out: EC50): 34.9 ± 4.53 µM | agonist character (human nAChR alpha3beta4; listed as Compound 1 citrate): almost as a full agonist | agonist character (human nAChR alpha3beta4): almost full agonist | EC50 (human nAChR alpha4beta2; Example 5, read-out: EC50): 13.5 ± 2.06 µM | effect on the subsequent ACh-evoked current (human nAChR alpha4beta2; after exposure to the agonist concentration series, mono-citrate): Significant inhibition | agonist character (human nAChR alpha4beta2; listed as Compound 1 citrate, mono-citrate): almost as a full agonist | agonist character (human nAChR alpha4beta2; mono-citrate): almost full agonist | EC50 [4]: 13.1 ± 3.68 µM | agonist character ([4]; listed as Compound 1 citrate): almost as a full agonist | agonist character [4]: almost full agonist
